Measured values: patent US9840481B2, “Allosteric modulators of nicotinic acetylcholine receptors” (MERCK SHARP & DOHME CORP., priority 2016, dated 2017)
Where two headings read alike, the source gives them in different places.

Biological target: T1, human α7 nAChR stably expressed in a HEK cell line (with human RIC-3) (Homo sapiens, UniProt P36544)
T1 construct: PrecisION hnAChR α7/RIC-3
Assay: Automated patch-clamp electrophysiology functional assay (Assay A), IonFlux HT, whole-cell population patch
Assay type: cell-based
Experimental: The α7 nAChR positive allosteric modulator (PAM) activity of the present compounds may be tested using assays known in the art. The α7 nAChR PAMs described herein have activities in an automated patch-clamp electrophysiology functional assay as described in the examples. The assay was performed using the IonFlux HT in a whole-cell, population patch configuration. See Golden et al. Assay Drug Dev. Technol. (2011) 9:608-619. The compounds were assessed for their ability to modulate the function of the human α7 nAChR stably expressed in a HEK cell line both in the presence, and in the absence of the natural α7 agonist acetylcholine. By performing a series of such measurements at different concentrations, the effective concentration of the α7 nAChR PAMs (EC50) was determined. See Spencer et al. Assay Drug Dev. Technol. (2012) 10:313-324.
Direct activation of α7 (agonism), and potentiation of 5 acetylcholine-evoked α7 currents was determined as follows:
Automated Patch-Clamp Electrophysiology Functional Assay (Assay A)
Automated patch-clamp electrophysiology was performed using the IonFlux HT (Fluxion Biosciences Inc., San Francisco, Calif.) in the whole-cell, population patch configuration. Test compounds were assessed for their ability to modulate the function of the α7 nicotinic acetylcholine receptor both in the presence, and in the absence of the natural α7 agonist acetylcholine. A HEK cell line stably expressing both human RIC-3 and human α7 (PrecisION hnAChR α7/RIC-3, Eurofins Pharma, St. Charles, Mo.) was cultured in 175 cm^2 triple-layer tissue culture flasks to no more than 90% confluency in DMEM/F-12 growth media supplemented with 10% heat-inactivated fetal bovine serum, 1% non-essential amino acids, 0.625 μg/mL Puromycin, and 400 μg/mL Geneticin. Immediately prior to assay, cells were detached by first aspirating growth media, rinsing with Dulbecco's phosphate buffered saline, and then adding 10 mL of Accutase (Innovative Cell Technologies, San Diego, Calif.) to the flask and then incubating at 37° C. for 5 minutes. Detached cells were then recovered by the addition of 40 mL of CHO-serum-free media supplemented with 25 mM HEPES, and rocked gently in a 50 mL conical tube for 20 minutes prior to patch-clamp assay. After recovery, cells were pelleted by centrifugation at 1,000 RPM for 1 minute in a compact bench top centrifuge; recovery media was aspirated and cells were resuspended in external recording solution (150 mM NaCl, 5 mM KCl, 2 mM CaCl2, 1 mM MgCl2, 10 mM HEPES, 12 mM dextrose) to a density of 5.0×10^6 cells/mL. The cell suspension was added to the cell inlet wells on an IonFlux HT population patch plate which had previously been rinsed and primed with deionized H2O. Test compounds were serially diluted in DMSO and then resuspended to the final test concentration in external recording solution, with, or without […] acetylcholine added to the external recording solution; test compounds were then transferred to the IonFlux HT population patch plate. Internal recording solution (110 mM TrisPO4, 28 mM TrisBase, 0.1 mM CaCl2, 2 mM MgCl2, 11 mM EGTA, 4 mM MgATP) was added to the internal recording solution inlet wells on the IonFlux HT patch plate previously loaded with cells and test compounds, and the plate loaded into the IonFlux HT instrument. A protocol was executed on the IonFlux HT to trap the cells, break into the cells, and establish the whole-cell recording configuration; cells were voltage-clamped at a holding potential of −60 mV for the duration of the experiment, all experiments were conducted at room temperature, and the IonFlux HT injection pressure was 8 psi for solution applications. Upon establishing the whole-cell configuration, external recording solution was perfused into the recording chambers for 120 seconds and then 40 μM acetylcholine was applied for 1 second and immediately washed off with external recording solution for 60 seconds. […]

[1] = automated patch-clamp electrophysiology functional assay (Assay A), potency class by EC50, read-out: α7 nAChR Potency
[2] = electrophysiology EC50, HEK cells expressing human α7/RIC-3, 40 μM acetylcholine, holding potential −60 mV, room temperature, read-out: α7 nAChR EC50

T1 sequence (P36544 23-502): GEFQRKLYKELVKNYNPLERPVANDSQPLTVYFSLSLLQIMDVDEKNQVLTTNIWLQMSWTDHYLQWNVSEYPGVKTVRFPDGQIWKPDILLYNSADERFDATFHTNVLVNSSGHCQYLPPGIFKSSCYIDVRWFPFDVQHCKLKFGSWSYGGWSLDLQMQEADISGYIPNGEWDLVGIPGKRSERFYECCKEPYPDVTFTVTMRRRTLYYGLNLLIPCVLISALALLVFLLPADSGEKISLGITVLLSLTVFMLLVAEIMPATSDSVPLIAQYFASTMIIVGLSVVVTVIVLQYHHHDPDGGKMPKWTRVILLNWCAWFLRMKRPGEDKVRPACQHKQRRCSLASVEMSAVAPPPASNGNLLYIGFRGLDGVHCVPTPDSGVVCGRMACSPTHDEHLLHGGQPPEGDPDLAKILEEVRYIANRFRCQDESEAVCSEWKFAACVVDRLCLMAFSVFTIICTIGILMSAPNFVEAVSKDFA

SMILES	EC50 [1]	EC50 [2]
COc1ccc(Cl)cc1-c1noc([C@@H]2[C@@H](c3ccc(S(N)(=O)=O)cc3)C2(C)C)n1 [Example A1]	500 to 5000 nM	2900 nM
CC1(C)[C@@H](c2ccc(S(N)(=O)=O)cc2)[C@@H]1c1nnc(C2CCCCC2)s1 [Example G13]	500 to 5000 nM	2200 nM
NS(=O)(=O)c1ccc([C@@H]2C[C@H]2c2nc(-c3cccc(F)c3)no2)cc1 [Example 4, 4-((1R,2R)-2-(3-(3-Fluorophenyl)-1,2,4-oxadiazol-5-yl)cyclopropyl)benzenesulfonamide]	100 to 500 nM	230 nM
CC1(C)[C@@H](c2ccc(S(N)(=O)=O)cc2)[C@@H]1c1noc(-c2c(F)cccc2F)n1 [Example H8]	100 to 500 nM	110 nM
CC1(C)[C@@H](c2ccc(S(N)(=O)=O)cc2)[C@@H]1c1nc(-c2ccc(C(F)(F)F)nc2)no1 [Example D29]	500 to 5000 nM	
Cc1cccc(F)c1-c1nc([C@H]2[C@H](c3ccc(S(N)(=O)=O)cc3)C2(C)C)no1 [Example H6]	100 to 500 nM	
CC1(C)[C@@H](c2ccc(S(N)(=O)=O)cc2)[C@@H]1c1nnc(-c2c(F)cccc2C(F)(F)F)o1 [Example G17]	500 to 5000 nM	950 nM
CC1(C)[C@@H](c2ccc(S(N)(=O)=O)cc2)[C@@H]1c1nc(CC2CC2)no1 [Example D27]	100 to 500 nM	200 nM
CC1(C)C(c2ccc(S(N)(=O)=O)cc2)C1c1cc(C2CCCC2)on1 (stereo not drawn) [Example 34, 4-(trans-3-(5-Cyclopentylisoxazol-3-yl)-2,2-dimethylcyclopropyl)benzenesulfonamide]	100 to 500 nM	160 nM
NS(=O)(=O)c1ccc([C@@H]2C[C@H]2c2nc(-c3ccc(F)cc3C(F)(F)F)no2)cc1 [Example C7]	500 to 5000 nM	960 nM
NS(=O)(=O)c1ccc([C@@H]2C[C@H]2c2nc(CC3CC3)no2)cc1 [Example D28]	500 to 5000 nM	
CC(C)c1nsc(C2CC2c2ccc(S(N)(=O)=O)cc2)n1 (single isomer, unassigned; enantiomer b) [Example 18, 4-{trans-2-[3-(Propan-2-yl)-1,2,4-thiadiazol-5-yl]cyclopropyl}benzenesulfonamide, enantiomer B]	100 to 500 nM	380 nM
COc1ccc(Cl)cc1-c1noc(C2C(c3ccc(S(N)(=O)=O)cc3)C2(F)F)n1 (stereo not shown) [Example E2]	500 to 5000 nM	
NS(=O)(=O)c1ccc([C@@H]2[C@@H](c3nc(C4CCCC4)no3)C2(F)F)cc1 [Example B19]	100 to 500 nM	370 nM
CC1(C)[C@H](c2ccc(S(N)(=O)=O)cc2)[C@H]1c1nc(-c2cncc(C(F)(F)F)c2)no1 [Example B7]	500 to 5000 nM	2800 nM
CC(C)c1nnc([C@H]2[C@H](c3ccc(S(N)(=O)=O)cc3)C2(C)C)o1 [Example G9]	500 to 5000 nM	
CC1(C)[C@H](c2ccc(S(N)(=O)=O)cc2)[C@H]1c1nc(C2(c3ccccc3)CC2)no1 [Example B13]	500 to 5000 nM	4100 nM
NS(=O)(=O)c1ccc([C@H]2C[C@@H]2c2nc(-c3ccc(F)cc3F)no2)cc1 [Example A8]	5000 to 50000 nM	
NS(=O)(=O)c1ccc([C@@H]2C[C@H]2c2nc(-c3cnccc3C(F)(F)F)no2)cc1 [Example D22]	500 to 5000 nM	
CC1(C)[C@@H](c2ccc(S(N)(=O)=O)cc2)[C@@H]1c1nnc(-c2ccccc2)o1 [Example G1]	500 to 5000 nM	1800 nM
CC(C)Oc1ccc(Cl)cc1-c1noc([C@H]2[C@H](c3ccc(S(N)(=O)=O)cc3)C2(C)C)n1 [Example C3]	5000 to 50000 nM	6100 nM
NS(=O)(=O)c1ccc([C@@H]2C[C@H]2c2nc(C3CCCCC3)no2)cc1 [Example D8]	100 to 500 nM	190 nM
NS(=O)(=O)c1ccc([C@@H]2C[C@H]2c2nc(-c3cnccc3C(F)(F)F)no2)cc1 [Example D25]	500 to 5000 nM	
CC1(C)[C@@H](c2ccc(S(N)(=O)=O)cc2)[C@@H]1c1noc(-c2ccc(OC(F)(F)F)cc2)n1 [Example H13]	500 to 5000 nM	
CC(C)Oc1ccc(Cl)cc1-c1noc([C@@H]2[C@@H](c3ccc(S(N)(=O)=O)cc3)C2(C)C)n1 [Example A4]	500 to 5000 nM	4800 nM
CC1(C)[C@@H](c2ccc(S(N)(=O)=O)cc2)[C@@H]1c1nc(-c2ccccc2)no1 [Example C4]	100 to 500 nM	370 nM
NS(=O)(=O)c1ccc([C@@H]2C[C@H]2c2nc(-c3ccc(F)cc3F)no2)cc1 [Example C13]	100 to 500 nM	160 nM
CC1(C)[C@H](c2ccc(S(N)(=O)=O)cc2)[C@H]1c1nc(-c2ccccc2)no1 [Example A3]	500 to 5000 nM	
NS(=O)(=O)c1ccc([C@@H]2C[C@H]2c2noc(N3CCCCC3)n2)cc1 [Example 37, 4-{(1R,2R)-2-[5-(Piperidin-1-yl)-1,2,4-oxadiazol-3-yl]cyclopropyl}benzenesulfonamide]	100 to 500 nM	240 nM
NS(=O)(=O)c1ccc([C@@H]2C[C@H]2c2nc(-c3cccc(F)c3F)no2)cc1 [Example C15]	100 to 500 nM	340 nM

Next, values leading:

EC50 [1]	EC50 [2]	SMILES
500 to 5000 nM	3200 nM	CC(C)(C)c1coc([C@@H]2[C@@H](c3ccc(S(N)(=O)=O)cc3)C2(C)C)n1 [Example J4]
5000 to 50000 nM		CC(c1nc([C@H]2[C@H](c3ccc(S(N)(=O)=O)cc3)C2(C)C)no1)n1ccnc1 (stereo partly shown) [Example I11]
100 to 500 nM		CC1(C)[C@@H](c2ccc(S(N)(=O)=O)cc2)[C@@H]1c1noc(-c2ccncc2C(F)(F)F)n1 [Example I19]
100 to 500 nM	220 nM	CC1(C)[C@H](c2ccc(S(N)(=O)=O)cc2)[C@H]1c1noc(-c2cccc(F)c2)n1 [Example L18]
100 to 500 nM		NS(=O)(=O)c1ccc([C@@H]2C[C@H]2c2nc(C3CCCC3)co2)cc1 [Example K18]
500 to 5000 nM		CC1(C)[C@@H](c2ccc(S(N)(=O)=O)cc2)[C@@H]1c1noc(-c2cccc3c2OCC(=O)N3)n1 [Example I31]
500 to 5000 nM		CC1(C)[C@@H](c2ccc(S(N)(=O)=O)cc2)[C@@H]1c1noc(-c2nc(-c3ccc(F)cc3)c[nH]2)n1 [Example I17]
500 to 5000 nM	640 nM	CC1(C)[C@@H](c2ccc(S(N)(=O)=O)cc2)[C@@H]1c1cc(-c2ccccc2)no1 [Example L4]
100 to 500 nM	390 nM	NS(=O)(=O)c1ccc([C@H]2[C@H](c3ncc(C4CCCC4)o3)C2(F)F)cc1 [Example K13]
500 to 5000 nM		CC1(C)[C@H](c2ccc(S(N)(=O)=O)cc2)[C@H]1c1cnn(C2CCCC2)c1 [Example L8]
500 to 5000 nM	950 nM	CC1(C)[C@@H](c2ccc(S(N)(=O)=O)cc2)[C@@H]1c1cn(-c2cccc(F)c2)nn1 [Example L6]
500 to 5000 nM		CC1(C)[C@@H](c2ccc(S(N)(=O)=O)cc2)[C@@H]1c1noc(C(O)C(F)(F)F)n1 (stereo partly shown) [Example I28]
500 to 5000 nM		CC1(C)[C@@H](c2ccc(S(N)(=O)=O)cc2)[C@@H]1c1noc(Cn2c(=O)oc3ccc(Cl)cc32)n1 [Example I5]
500 to 5000 nM	1800 nM	CC1(C)[C@@H](c2ccc(S(N)(=O)=O)cc2)[C@@H]1c1noc(C2CCN(C3CC3)CC2)n1 [Example I9]
100 to 500 nM		CC1(C)[C@@H](c2ccc(S(N)(=O)=O)cc2)[C@@H]1c1noc(Cc2ccc(F)cc2F)n1 [Example I1]
5000 to 50000 nM	6800 nM	CC1(C)[C@@H](c2ccc(S(N)(=O)=O)cc2)[C@@H]1c1noc(C2CCC(O)CC2)n1 (stereo partly shown) [Example I29]
